{"source": "patent US20120101076A1", "about": "“CARBONATE DERIVATIVES FOR THE TREATMENT OF COUGH” (priority 2010, published 2012)", "key": {"[1]": {"test_system": "guinea pigs (citric acid-induced cough)", "assay": "citric acid cough challenge in guinea pigs", "assay_type": "in vivo, guinea pig", "details": "for percentage (%) reduction of number of coughs / percentage (%) of reduction of number of cough efforts: mean±SEM", "protocol": "Evaluation of the activities of Compound Ia and tiotropium bromide in an animal cough challenge model.\nMale Dunkin-Hartley guinea pigs (250-350 g, Charles-River, Italy) were acclimatized in cages, (24±0.5° C.) for 1 week after delivery, with free access to water and standard rodent diet. One group of guinea pigs was actively sensitized by an intra-peritoneal injection of ovalbumin (100 mg/kg) followed by a subcutaneous injection of ovalbumin (100 mg/kg). Controls received the vehicle alone (0.9% NaCl).\nAfter the period of acclimatization to laboratory conditions, animals were individually placed in a transparent perspex box (20×10×10 cm, Vetrotecnica, Italy) ventilated with a constant airflow of 400 ml/minute. A tussive agent (citric acid, 0.25 M) was nebulized via a mini-ultrasonic nebulizer (Ugo Basile, Italy). […] The numbers of elicited cough efforts were counted by a blind observer.\nAll experiments were carried out at the same time of day, starting at 9.00 a.m. Guinea-pigs received Compound Ia (1 mM) or tiotropium bromide (0.3 mM) or their vehicle (distilled water) for 10 minutes by aerosol at least 3 hour before the citric acid challenge (0.25 M; for 10 minute; by aerosol), in order to elicit cough.\nValues are presented as mean±SEM. Comparisons among groups were made by one way analysis of variance (ANOVA) and the Student's t-test or the Bonferroni's test when appropriate. A p value of <0.05 was considered significant."}, "[2]": {"test_system": "postviral coughing", "details": "inhaled, relative to placebo; cited from earlier work"}, "[3]": {"test_system": "ovalbumin-sensitized guinea-pigs", "details": "administered intratracheally; cited from earlier work"}, "[4]": {"test_system": "adult nonsmokers with acute viral upper respiratory tract infection", "details": "once daily 18 μg by inhalation for 7 days; cited from earlier work"}}, "data": [{"smiles": "O=C(OC(c1cccc(F)c1)c1cccc(F)c1)O[C@H]1C[N+]2(CC(=O)c3cccs3)CCC1CC2.[Cl-]", "note": "[Compound Ia]", "values": [{"measurement": "number of cough efforts induced by citric acid (statistical significance)", "setting": "[1]; 1 mM by aerosol, 3 hours before citric acid 0.25 M", "result": "significantly reduced"}, {"measurement": "percentage (%) reduction of number of coughs", "setting": "[1]; control, non-sensitized animals, 1 mM by aerosol, 3 hours before citric acid 0.25 M", "result": "17.4±6.4", "unit": "%"}, {"measurement": "percentage (%) reduction of number of coughs", "setting": "[1]; ovalbumin-sensitized animals, 1 mM by aerosol, 3 hours before citric acid 0.25 M", "result": "37.2±5.9", "unit": "%"}]}, {"smiles": "CC(C)[N+]1(C)[C@@H]2CC[C@H]1C[C@@H](OC(=O)C(CO)c1ccccc1)C2", "note": "(stereo partly drawn) [ipratropium bromide]", "values": [{"measurement": "suppression of subjectively described postviral coughing", "setting": "[2]", "result": "effective"}]}, {"smiles": "C[N+]1(C)[C@@H]2C[C@@H](OC(=O)C(O)(c3cccs3)c3cccs3)C[C@H]1[C@@H]1O[C@@H]12", "note": "[tiotropium bromide]", "values": [{"measurement": "cough elicited by inhalation of citric acid", "setting": "[3]", "result": "able to reduce cough"}, {"measurement": "cough reflex sensitivity to inhaled capsaicin", "setting": "[4]", "result": "capable of inhibiting cough reflex sensitivity"}, {"measurement": "number of cough efforts induced by citric acid (statistical significance)", "setting": "[1]; 0.3 mM by aerosol, 3 hours before, both animal groups", "result": "did not reach a statistical significance"}, {"measurement": "percentage (%) of reduction of number of cough efforts", "setting": "[1]; control animals, 0.3 mM by aerosol, 3 hours before citric acid 0.25 M", "result": "20.2±9.9", "unit": "%"}, {"measurement": "percentage (%) of reduction of number of cough efforts", "setting": "[1]; ovalbumin-sensitized animals, 0.3 mM by aerosol, 3 hours before citric acid 0.25 M", "result": "28.1±11", "unit": "%"}]}]}
